Where “and” joins values, the source holds several entries; their conditions need not be identical. Equal values may be shown once. Read-outs that look alike come from different tables or passages of the source.
Columns and labels:
NCI-H358 (K-Ras G12C) = experiment: CellTiter-Glo cell viability assay, NCI-H358; assay type: cell-based, human
How it was run: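 NCI-H358 cells were treated with test compounds dispensed directly into the assay wells and incubated until day 5. Viability was then read by CellTiter-Glo luminescence after a ~30 min room-temperature equilibration, normalized to the DMSO average (×100), and fit with a four-parameter logistic curve.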

[1] = tested on: Capan-1 cells (K-Ras G12V); experiment: CellTiter-Glo cell viability, Capan-1; assay type: cell-based, human; conditions: K-Ras G12V, 5-day treatment, read-out: Capan-1 Cell Viability IC50
How it was run: (§1)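 Compounds were dispensed directly onto seeded cells and incubated until day 5, then plates were equilibrated at room temperature for about 30 min before CellTiter-Glo luminescence readout. Signals were normalized as (sample/average DMSO)×100 and fitted with a four-parameter logistic model.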

KRAS G12S = KRAS G12S (Homo sapiens (Human), UniProt P01116+P62937, G12S); experiment: Ras-Raf disruption/FRET/MOA assay (BRAF RBD, Cyclophilin A); assay type: biochemical; conditions: read-out: KRAS G12S FRET IC50
How it was run: (§2)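 Measured: compound-facilitated Cyclophilin A:Ras complex blocking RAF RBD binding. Conditions: 12.5 nM Ras-GMPPNP, 50 nM BRAF RBD, 25 μM CypA, 3 h plus 1.5 h detection. Output: IC50 from TR-FRET ratio.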

KRAS WT = KRAS WT (Homo sapiens (Human), UniProt P01116+P62937); experiment: as above; assay type: biochemical; conditions: read-out: KRAS WT FRET data IC50
How it was run: as §2

NRAS G12C = NRAS G12C (Homo sapiens (Human), UniProt P01111+P62937, G12C); experiment: as above; assay type: biochemical; conditions: read-out: NRAS G12C FRET data IC50
How it was run: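 First, 25 μM Cyclophilin A, 12.5 nM His6-Ras-GMPPNP and 50 nM GST-BRAF RBD are mixed with diluted compound at pH 7.3. Next, 3 h at 25° C. Then 10 nM anti-His Eu-W1024 plus 50 nM anti-GST allophycocyanin for 1.5 h before TR-FRET reading.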

KRAS G12V = KRAS G12V (Homo sapiens (Human), UniProt P01116+P62937, G12V); experiment: as above; assay type: biochemical; conditions: read-out: KRAS G12V FRET IC50
How it was run: as §2

KRAS G12D = KRAS G12D (Homo sapiens (Human), UniProt P01116+P62937, G12D); experiment: as above; assay type: biochemical; conditions: read-out: KRAS G12D FRET IC50
How it was run: as §2

KRAS G13C = KRAS G13C (Homo sapiens (Human), UniProt P01116+P62937, G13C); experiment: as above; assay type: biochemical; conditions: read-out: KRAS G13C FRET IC50
How it was run: as §2

KRAS G13D = KRAS G13D (Homo sapiens (Human), UniProt P01116+P62937, G13D); experiment: as above; assay type: biochemical; conditions: read-out: KRAS G13D FRET data IC50
How it was run: as §2

KRAS G12C = KRAS G12C (Homo sapiens (Human), UniProt P01116+P62937, G12C); experiment: as above; assay type: biochemical; conditions: read-out: KRAS G12C FRET IC50
How it was run: as §2

[2] = molecular target: K-Ras G12C(GMP-PNP) binding to BRAF RBD (Homo sapiens (Human), UniProt P01116+P62937, G12C); experiment: Disruption of BRAF RBD interaction with K-Ras (FRET / MOA assay), K-Ras G12C; assay type: biochemical; conditions: read-out: KRAS G12C FRET IC50
Excerpt: Note—The following protocol describes a procedure for monitoring disruption of K-Ras G12C(GMP-PNP) binding to BRAF^RBD by a compound of the invention. This protocol may also be executed substituting other Ras proteins or nucleotides.
The purpose of this biochemical assay was to measure the ability of test compounds to facilitate ternary complex formation between a nucleotide-loaded K-Ras isoform and Cyclophilin A; the resulting ternary complex disrupts binding to a BRAF^RBD construct, inhibiting K-Ras signaling through a RAF effector. Data is reported as IC50 values.
Compound was present in plate wells as a 10-point 3-fold dilution series starting at a final concentration of 30 μM. After incubation at 25° C. for 3 hours, a mixture of Anti-His Eu—W1024 and anti-GST allophycocyanin was then added to assay sample wells at final concentrations of 10 nM and 50 nM, respectively, and the reaction incubated for an additional 1.5 hours. […] Compounds that facilitate disruption of a K-Ras: RAF complex were identified as those eliciting a decrease in the TR-FRET ratio relative to DMSO control wells.

[3] = tested on: NCI-H358 cells (K-Ras G12C); experiment: CellTiter-Glo cell viability, NCI-H358; assay type: cell-based, human; conditions: K-Ras G12C, 5-day treatment, read-out: H358 Cell Viability IC50
How it was run: as §1

[4] = tested on: K-Ras G12C (NCI-H358 cells); experiment: Potency assay: pERK in NCI-H358 cells; assay type: cell-based, human; conditions: NCI-H358 cells, 4 hours, read-out: pERK EC50 (H358 KRAS G12C)
How it was run: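 Cells plated the day before were exposed for 4 h at 37° C, 5% CO2 to a 10-point, 3-fold DMSO dilution series (10 mM top stock), in duplicate. Phospho-ERK was read by AlphaLISA SureFire Ultra or by In-Cell Western with DRAQ5 DNA stain, and IC50 came from a 4-parameter sigmoidal fit.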

[5] = Homo sapiens, NCI-H358, 120 h, 5-day treatment, read-out: H358 Cell Viability assay data (K-Ras G12C, IC50)
[6] = 5-day treatment, read-out: H358 Cell Viability assay data (K-Ras G12C, IC50)

Chain of KRAS G13C (P01116 other isoform, or with tags, fused parts or gaps G13C): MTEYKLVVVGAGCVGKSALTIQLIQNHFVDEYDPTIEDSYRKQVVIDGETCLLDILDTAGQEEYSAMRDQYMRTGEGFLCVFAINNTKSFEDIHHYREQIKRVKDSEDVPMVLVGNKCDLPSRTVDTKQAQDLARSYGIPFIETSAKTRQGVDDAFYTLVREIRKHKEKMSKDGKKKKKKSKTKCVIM
Chain of KRAS G13C (P62937 whole entry): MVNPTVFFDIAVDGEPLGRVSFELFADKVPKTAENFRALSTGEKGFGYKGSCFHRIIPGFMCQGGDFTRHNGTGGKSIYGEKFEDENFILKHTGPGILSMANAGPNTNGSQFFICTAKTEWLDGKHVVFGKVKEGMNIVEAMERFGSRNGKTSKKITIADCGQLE
Chain of K-Ras G12C(GMP-PNP) binding to BRAF RBD (P01116 other isoform, or with tags, fused parts or gaps G12C): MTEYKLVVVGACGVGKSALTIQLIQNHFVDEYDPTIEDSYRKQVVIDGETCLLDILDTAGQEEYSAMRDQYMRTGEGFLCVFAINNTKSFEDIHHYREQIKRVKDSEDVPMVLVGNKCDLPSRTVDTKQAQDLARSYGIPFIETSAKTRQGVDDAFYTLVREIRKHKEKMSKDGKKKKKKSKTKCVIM
Chain of K-Ras G12C(GMP-PNP) binding to BRAF RBD (P62937 whole entry): as the sequence (P62937 whole entry) above
Chain of KRAS G12S (P01116 other isoform, or with tags, fused parts or gaps G12S): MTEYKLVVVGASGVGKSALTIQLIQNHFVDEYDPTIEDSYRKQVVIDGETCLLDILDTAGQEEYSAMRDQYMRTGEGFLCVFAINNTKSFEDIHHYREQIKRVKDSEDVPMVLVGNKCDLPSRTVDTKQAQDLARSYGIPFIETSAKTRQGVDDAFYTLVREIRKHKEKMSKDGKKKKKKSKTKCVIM
Chain of KRAS G12S (P62937 whole entry): as the sequence (P62937 whole entry) above
Chain of KRAS G12V (P01116 other isoform, or with tags, fused parts or gaps G12V): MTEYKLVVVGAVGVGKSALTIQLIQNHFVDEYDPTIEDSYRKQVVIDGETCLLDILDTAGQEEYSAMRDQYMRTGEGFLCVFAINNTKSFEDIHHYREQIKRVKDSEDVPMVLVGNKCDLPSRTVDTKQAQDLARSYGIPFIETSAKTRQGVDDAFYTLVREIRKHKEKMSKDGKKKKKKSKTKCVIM
Chain of KRAS G12V (P62937 whole entry): as the sequence (P62937 whole entry) above
Chain of KRAS G12C (P01116-2 other isoform, or with tags, fused parts or gaps G12C): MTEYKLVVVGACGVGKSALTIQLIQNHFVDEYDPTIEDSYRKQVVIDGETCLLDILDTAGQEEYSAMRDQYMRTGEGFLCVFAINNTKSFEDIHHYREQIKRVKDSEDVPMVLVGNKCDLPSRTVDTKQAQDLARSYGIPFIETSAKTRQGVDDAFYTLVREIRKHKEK
Chain of KRAS G12C (P62937 whole entry): as the sequence (P62937 whole entry) above
Chain of KRAS G12D (P01116 other isoform, or with tags, fused parts or gaps G12D): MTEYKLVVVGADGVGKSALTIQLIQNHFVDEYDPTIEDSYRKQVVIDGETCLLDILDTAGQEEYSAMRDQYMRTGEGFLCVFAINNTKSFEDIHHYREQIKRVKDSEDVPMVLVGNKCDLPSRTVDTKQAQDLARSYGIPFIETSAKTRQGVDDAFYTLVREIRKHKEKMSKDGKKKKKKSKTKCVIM
Chain of KRAS G12D (P62937 whole entry): as the sequence (P62937 whole entry) above
Chain of NRAS G12C (P01111 whole entry G12C): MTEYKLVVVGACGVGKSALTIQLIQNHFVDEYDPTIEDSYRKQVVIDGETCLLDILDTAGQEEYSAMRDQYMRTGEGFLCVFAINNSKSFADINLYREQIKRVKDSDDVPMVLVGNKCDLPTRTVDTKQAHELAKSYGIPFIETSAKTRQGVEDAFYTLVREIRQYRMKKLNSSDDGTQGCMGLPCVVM
Chain of NRAS G12C (P62937 whole entry): as the sequence (P62937 whole entry) above
Chain of KRAS G13D (P01116 other isoform, or with tags, fused parts or gaps G13D): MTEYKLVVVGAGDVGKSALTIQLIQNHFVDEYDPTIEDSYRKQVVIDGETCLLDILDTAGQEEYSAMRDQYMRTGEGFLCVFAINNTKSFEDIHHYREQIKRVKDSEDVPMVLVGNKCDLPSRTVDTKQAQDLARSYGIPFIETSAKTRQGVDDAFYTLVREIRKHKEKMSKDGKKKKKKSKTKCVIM
Chain of KRAS G13D (P62937 whole entry): as the sequence (P62937 whole entry) above
Chain of KRAS WT (P01116 other isoform, or with tags, fused parts or gaps): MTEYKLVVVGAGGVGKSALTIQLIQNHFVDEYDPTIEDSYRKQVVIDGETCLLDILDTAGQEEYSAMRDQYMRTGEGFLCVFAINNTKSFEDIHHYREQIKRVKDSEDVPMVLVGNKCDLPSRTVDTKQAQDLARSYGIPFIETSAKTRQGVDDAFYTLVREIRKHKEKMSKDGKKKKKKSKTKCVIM
Chain of KRAS WT (P62937 whole entry): as the sequence (P62937 whole entry) above

Row | IC50 (NCI-H358 (K-Ras G12C); [5]) [µM] | IC50 (KRAS G12S) [nM] | IC50 (KRAS WT) [nM] | IC50 (NRAS G12C) [nM] | IC50 (KRAS G12V) [nM] | IC50 (KRAS G12D) [nM] | IC50 (KRAS G13D) [nM] | IC50 (KRAS G12C) [nM] | IC50 [2] | IC50 ([3]; Homo sapiens, NCI-H358, 120 h) [nM] | EC50 ([4]; Homo sapiens) [nM] | IC50 (NCI-H358 (K-Ras G12C); Homo sapiens, NCI-H358, 120 h, read-out: H358 Cell Viability assay data (K-Ras G12C, IC50, uM), 5-day treatment) [µM] | Compound | IC50 ([1]; Homo sapiens, CAPAN-1, 120 h) [nM] | IC50 (KRAS G13C) [nM] | IC50 [3] [nM] | IC50 (NCI-H358 (K-Ras G12C); [6]) [µM] | IC50 [1] [nM] | EC50 [4] [nM]
1 | – | – | – | – | – | – | – | – | 10 to 100 nM and 1000 to 10000 nM | 100 to 1000 | < 5000 | – | CCn1c(-c2cccnc2[C@H](C)OC)c2c3cc(ccc31)-c1csc(n1)C[C@H](NC(=O)[C@H](C(C)C)N(C)C(=O)N1C[C@H](C)N(C)C[C@@H]1C)C(=O)N1CCC[C@H](N1)C(=O)OCC(C)(C)C2 [Compound A283] | 100 to 1000 | – | – | – | – | –
2 | – | – | – | – | – | – | – | – | 100 to 1000 nM | 10 to 100 | – | 0.1 to 1 | CCn1c(-c2cccnc2[C@H](C)OC)c2c3cc(ccc31)-c1csc(n1)C[C@H](NC(=O)[C@H](C(C)C)N(C)C(=O)N1CCC[C@@H](N(C)C)CC1)C(=O)N1CCC[C@H](N1)C(=O)OCC(C)(C)C2 [Compound A494] | – | – | – | – | – | –
3 | 0.1 to 1 | – | – | – | – | – | – | – | 100 to 1000 nM | < 10 | < 5000 | – | CCn1c(-c2cc(N3CCN(C)CC3)cnc2[C@H](C)OC)c2c3cc(ccc31)-c1csc(n1)C[C@H](NC(=O)[C@H](C(C)C)N(C)C(=O)[C@@H]1OCC[C@@H]1c1ccccc1)C(=O)N1CCC[C@H](N1)C(=O)OCC(C)(C)C2 [Compound A593] | < 10 | – | – | – | – | –

The next lines start with the molecule.

Row | Compound | IC50 (NCI-H358 (K-Ras G12C); [5]) [µM] | IC50 (KRAS G12S) [nM] | IC50 (KRAS WT) [nM] | IC50 (NRAS G12C) [nM] | IC50 (KRAS G12V) [nM] | IC50 (KRAS G12D) [nM] | IC50 (KRAS G13D) [nM] | IC50 (KRAS G12C) [nM] | IC50 [2] | IC50 ([3]; Homo sapiens, NCI-H358, 120 h) [nM] | EC50 ([4]; Homo sapiens) [nM] | IC50 (NCI-H358 (K-Ras G12C); Homo sapiens, NCI-H358, 120 h, read-out: H358 Cell Viability assay data (K-Ras G12C, IC50, uM), 5-day treatment) [µM] | IC50 ([1]; Homo sapiens, CAPAN-1, 120 h) [nM] | IC50 (KRAS G13C) [nM] | IC50 [3] [nM] | IC50 (NCI-H358 (K-Ras G12C); [6]) [µM] | IC50 [1] [nM] | EC50 [4] [nM]
4 | CCn1c(-c2cccnc2[C@H](C)OC)c2c3cc(ccc31)-c1cc(O)cc(c1)C[C@H](NC(=O)[C@H](C(C)C)N(C)C(=O)[C@@H]1C[C@@H]1C)C(=O)N1CCC[C@H](N1)C(=O)OCC(C)(C)C2 [Compound A223] | > 10 | 10 to 100 | 10 to 100 | 10 to 100 | 10 to 100 | 10 to 100 | 10 to 100 | 10 to 100 | 100 to 1000 nM and > 10000 nM | – | – | – | 100 to 1000 | 10 to 100 | – | – | – | –
5 | CCn1c(-c2cccnc2[C@H](C)OC)c2c3cc(ccc31)-c1csc(n1)C[C@H](NC(=O)[C@H]1[C@H](C)[C@@H]1C)C(=O)N1CCC[C@H](N1)C(=O)OCC(C)(C)C2 [Compound A227, (1R,2R,3S)—N-((6^3S,4S,Z)-1^1-ethyl-1^2-(2-((S)-1-methoxyethyl)pyridin-3-yl)-10,10-dimethyl-5,7-dioxo-6^1,6^2,6^3,6^4,6^5,6^6-hexahydro-1^1H-8-oxa-2 (4,2)-thiazola-1 (5,3)-indola-6 (1,3)-pyridazinacycloundecaphane-4-yl)-2,3-dimethylcyclopropane-1-carboxamide] | – | – | – | – | – | – | – | – | 100 to 1000 nM | – | – | – | – | 10 to 100 | 1000 to 10000 | 0.1 to 1 | > 10000 | < 5000
6 | CCn1c(-c2cccnc2[C@H](C)OC)c2c3cc(ccc31)C1=C[C@@H](O)CN(C1)C[C@H](NC(=O)[C@H]1[C@H](C)[C@@H]1C)C(=O)N1CCC[C@H](N1)C(=O)OCC(C)(C)C2 [Compound A424, (1R,2R,3S)—N-((2^3R,6^3S,4S)-1^1-ethyl-23-hydroxy-1^2-(2-((S)-1-methoxyethyl)pyridin-3-yl)-10,10-dimethyl-5,7-dioxo-2^1,2^2,2^3,2^6,6^1,6^2,6^3,6^4,6^5,6^6-decahydro-1^1H-8-oxa-1 (5,3)-indola-6 (1,3)-pyridazina-2 (5,1)-pyridinacycloundecaphane-4-yl)-2,3-dimethylcyclopropane-1-carboxamide] | – | 10 to 100 | – | – | 10 to 100 | 100 to 1000 | – | 10 to 100 | 100 to 1000 nM | – | – | – | – | 10 to 100 | – | 0.1 to 1 | – | < 5000
7 | CCn1c(-c2cccnc2[C@H](C)OC)c2c3cc(ccc31)-c1cc(O)cc(c1)C[C@H](NC(=O)[C@H](C(C)C)N(C)C(=O)[C@H]1CCN(C(C)=O)C1)C(=O)N1CCC[C@H](N1)C(=O)NCC(C)(C)C2 [Compound A431] | 0.01 to 0.1 | 100 to 1000 | 1000 to 10000 | 100 to 1000 | 100 to 1000 | 1000 to 10000 | 1000 to 10000 | 100 to 1000 | 100 to 1000 nM | – | – | – | – | 100 to 1000 | – | – | – | –

From US20250195521A1 (Revolution Medicines, Inc., priority 2020, published 2025)
